Values of other authors in patent publication US11020416B2, “Cancer chemotherapy employing halogenated analogs of thymidine” (priority 2015, dated 2021).
Read-outs that look alike come from different tables or passages of the source.

What was measured:
PARP1 = PARP1 (Homo sapiens, UniProt P09874); settings: solution; Pivazyan, 1992; cited from earlier work
[1] = system: Melanoma, Carcinoma, Sarcoma; settings: trial a, 1961, 16 patients, dose 3.1, iv, rad +/−, multiple cycles up to 5 months; cited from earlier work
[2] = system: Oropharynx and Upper Extremity Tumors; settings: trial b, 1962, 4 patients, dose 3.9, iv/ia, no radiation, single cycle 1 week; cited from earlier work
Carcinoma, Melanoma = settings: trial c, 1962, 39 patients, dose 3.5, iv, no radiation, single cycle 1 week; cited from earlier work
Unresectable Sarcoma = settings: trial d, 1987, 14 patients, dose 1.3, iv, with radiation, multiple cycles up to 5 months, cited from earlier work
[3] = system: Colorectal Liver Metastases; settings: trial f, 1989, 11 patients, dose 1.0, ia, no radiation, multiple cycles up to 5 months, cited from earlier work
[4] = 14-day continuous infusion alternating with 14 days without infusion; cited from earlier work
[5] = cited from earlier work; for [IdU] plasma, average steady-state: continuous iv; for [IU] plasma (iodouracil), average steady-state: continuous iv IdU
[6] = intraperitoneal, Morgan 1998, cited from earlier work
[7] = schedule G, 1.000 Grams/M^2/day, Kinsella 1988
[8] = schedule I, 0.781 Grams/M^2/day, Schultz 2004
[9] = schedule J, 0.625 Grams/M^2/day, Schultz 2004
[10] = schedule M, 0.500 Grams/M^2/day, Schultz 2004
[11] = schedule N, 0.400 Grams/M^2/day, Schultz 2004
[12] = schedule O, 0.300 Grams/M^2/day, Schultz 2004
[13] = schedule Q, 0.200 Grams/M^2/day, Schultz 2004
[14] = schedule R, 0.100 Grams/M^2/day, Schultz 2004
[15] = schedule A, 4.538 Grams/M^2/4 hr (2 liters), 64 millimolar

Chain of PARP1 (P09874 whole entry, species assumed): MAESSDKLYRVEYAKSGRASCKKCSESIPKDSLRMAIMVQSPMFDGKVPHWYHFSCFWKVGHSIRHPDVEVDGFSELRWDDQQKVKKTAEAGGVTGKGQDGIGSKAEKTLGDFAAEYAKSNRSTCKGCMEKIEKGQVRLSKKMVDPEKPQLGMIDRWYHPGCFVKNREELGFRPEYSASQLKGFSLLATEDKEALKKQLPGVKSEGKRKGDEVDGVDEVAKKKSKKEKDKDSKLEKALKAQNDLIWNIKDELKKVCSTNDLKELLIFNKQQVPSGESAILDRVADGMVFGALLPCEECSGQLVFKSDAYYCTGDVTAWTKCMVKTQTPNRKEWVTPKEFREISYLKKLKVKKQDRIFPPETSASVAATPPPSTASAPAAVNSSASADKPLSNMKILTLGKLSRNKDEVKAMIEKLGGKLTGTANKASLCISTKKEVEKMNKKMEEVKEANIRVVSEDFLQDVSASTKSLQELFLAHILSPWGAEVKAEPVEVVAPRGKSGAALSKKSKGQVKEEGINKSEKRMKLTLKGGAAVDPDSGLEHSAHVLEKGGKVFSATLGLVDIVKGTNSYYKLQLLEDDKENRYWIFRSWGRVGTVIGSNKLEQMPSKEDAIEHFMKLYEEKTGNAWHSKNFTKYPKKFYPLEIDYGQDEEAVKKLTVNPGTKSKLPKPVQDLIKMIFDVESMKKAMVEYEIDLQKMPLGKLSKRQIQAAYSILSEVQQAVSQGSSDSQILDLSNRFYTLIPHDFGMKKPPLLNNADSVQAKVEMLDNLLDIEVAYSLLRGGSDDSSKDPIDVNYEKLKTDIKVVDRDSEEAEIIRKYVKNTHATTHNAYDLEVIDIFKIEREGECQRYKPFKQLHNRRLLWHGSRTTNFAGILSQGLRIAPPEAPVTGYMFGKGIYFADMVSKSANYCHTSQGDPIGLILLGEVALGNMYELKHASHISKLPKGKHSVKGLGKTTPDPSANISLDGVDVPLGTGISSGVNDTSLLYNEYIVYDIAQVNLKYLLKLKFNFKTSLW

O=c1[nH]c(=O)n([C@H]2C[C@H](O)[C@@H](CO)O2)cc1I [Iododeoxyuridine, 5-iododeoxyuridine]
Ki (PARP1): 18 µM
objective improvement [1]: 38%
subjective improvement [1]: 38%
objective improvement [2]: 100%
subjective improvement [2]: 100%
objective improvement (Carcinoma, Melanoma): 26%
objective improvement (Unresectable Sarcoma): 80%
subjective improvement (Unresectable Sarcoma): more than half of patients
subjective improvement (Unresectable Sarcoma; listed as IUDR): 57%
objective improvement [3]: almost half of the patients
objective improvement ([3]; listed as IUDR): 45%
time after HAT withdrawal to myelosuppression nadir and return of blood cell counts to normal [4]: 7 to 10 days
plasma concentration achieved ([5]; continuous circulatory infusion, historic trials d-f): > 1000 nM
elimination from patient plasma ([5]; pharmacokinetic analysis in patients): rapidly eliminated
[IdU] plasma, average steady-state ([5]; schedule C, 1.200 Grams/M^2/day, Klecker 1985): 7.4 µM
[IdU] plasma, average steady-state ([5]; schedule D, 1.200 Grams/M^2/day, Kinsella 1988): 3.4 µM
[IdU] plasma, average steady-state ([5]; schedule E, 1.000 Grams/M^2/day, Klecker 1985): 5.6 µM
[IU] plasma (iodouracil), average steady-state [5, 7]: >20 µM
[IdU] plasma, average steady-state [5, 7]: 2.4 µM
[IdU] plasma, average steady-state ([5]; schedule H, 0.850 Grams/M^2/day, Klecker 1985): 4.5 µM
[IU] plasma (iodouracil), average steady-state [5, 8]: 21.8 µM
[IdU] plasma, average steady-state [5, 8]: 1.5 µM
[IU] plasma (iodouracil), average steady-state [5, 9]: 13.9 µM
[IdU] plasma, average steady-state [5, 9]: 1.3 µM
[IdU] plasma, average steady-state ([5]; schedule K, 0.500 Grams/M^2/day, Klecker 1985): 2.9 µM
[IdU] plasma, average steady-state ([5]; schedule L, 0.500 Grams/M^2/day, Kinsella 1988): 1.3 µM
[IU] plasma (iodouracil), average steady-state [5, 10]: 6.0 µM
[IdU] plasma, average steady-state [5, 10]: 0.92 µM
[IU] plasma (iodouracil), average steady-state [5, 11]: 4.3 µM
[IdU] plasma, average steady-state [5, 11]: 0.90 µM
[IU] plasma (iodouracil), average steady-state [5, 12]: 3.0 µM
[IdU] plasma, average steady-state [5, 12]: 0.57 µM
[IdU] plasma, average steady-state ([5]; schedule P, 0.250 Grams/M^2/day, Klecker 1985): 1.1 µM
[IU] plasma (iodouracil), average steady-state [5, 13]: 1.4 µM
[IdU] plasma, average steady-state [5, 13]: 0.79 µM
[IU] plasma (iodouracil), average steady-state [5, 14]: 0.38 µM
[IdU] plasma, average steady-state [5, 14]: 0.51 µM
Peritoneal AUC [6, 15]: 4099 µM·h
Plasma AUC [6, 15]: 139 µM·h
Plasma AUC ([6]; schedule F, 0.625 Grams/M^2/4 hr (2 liters), 9 millimolar): 4.38 µM·h
